Entries after “also recorded” stand apart in the source; their conditions may differ.
Legend:
D. suzukii = test: Airborne toxicity petri dish assay, adult flies exposed to VOC vapours (FIG. 1A); assay type: in vivo, Drosophila suzukii; conditions: for time to 100% dead flies: monitored over 1 hour
Description: A selection of compounds according to the invention were tested for airborne toxicity to D. suzukii by exposing a population of adult D. suzukii flies to the vapours of the compound using an experimental set up as shown on FIG. 1A.
In particular, adult flies 2 were exposed to compositions 4 comprising one or more of a selection of VOCs according to the invention or a comparative example, in a petri dish 6. The compositions 4 were loaded onto the lid 6a of the petri dish 6 and the flies were placed into the base 6b of the dish, which was then covered by a sheet of plastic mesh netting 8 to avoid direct contact of the flies 2 with the compositions 4, before replacing the lid 6a.
[…] Four drops of 50 microlitres were dispensed into reinforcement rings (not shown) fixed on the inner surface of the petri dish lid 6a.
The experimental set up used was as described in relation to FIG. 1A.
The data is shown as averages±SEM based on 3 to 6 trials for each condition.

[1] = system: honeybees (Apis mellifera); test: Airborne toxicity on honeybees in the petri dish assay; assay type: in vivo; conditions: paraffin oil, 24 hours
adult D. suzukii flies = test: Petri dish assay, dose-range 0.3 to 10% vol in paraffin oil, 24 h exposure (FIG. 3E); assay type: in vivo, Drosophila suzukii; conditions: for concentration at which toxicity is displayed (as low as): dose-range 0.3 to 10% vol in paraffin oil, 24 h exposure, adult D. suzukii; for Minimal concentration (%) to induce 100% morbidity/mortality in D. suzukii adults: paraffin oil, 24 h exposure (Example 2)
From the text: Data are represented as mean proportion of dead flies, with counts separated between male (as indicated by ‘M’) and female (as indicated by ‘F’) flies. […] Data points marked NaN were not tested at the indicated concentration. The MEC column summarises the minimal effective concentration to induce 100% morbidity/mortality to adult D. suzukii flies.

[2] = VOC at 10 M in paraffin oil, vapour exposure, 1 hour
[3] = VOC at 10 M in paraffin oil, vapour exposure

SMILES | airborne toxicity/lethality in the initial screen with a high dose (words) (D. suzukii; [2]) | further results
CCC(C)C(=O)OC (centres unmarked) [methyl 2-methylbutyrate, Methyl 2-methyl butyrate] | showed toxicity | –
CCCCC=O [pentanal, Pentanal] | showed toxicity | –
CCCCCCC/C=C/C=O [E-2-decenal] | – | Percentage of dead honey bee adults (%) ([1]; applied concentration 2%): 0%
CC/C=C/C=O [(E)-2-pentenal] | showed toxicity | –
CCOC(=O)Cc1ccccc1 [ethyl phenyl acetate, Ethyl phenylacetate] | showed toxicity | time to 100% dead flies (D. suzukii; [3]): half an hour
CCCOC(=O)c1ccccc1 [propyl benzoate, Propyl benzoate] | showed toxicity | –
CCCCCC/C=C/C=O [E-2-nonenal] | showed toxicity | concentration at which toxicity is displayed (as low as) (adult D. suzukii flies): 2%
CCCC/C=C/C=O [(E)-2-heptenal] | showed toxicity | Minimal concentration (%) to induce 100% morbidity/mortality in D. suzukii adults (adult D. suzukii flies): 3%; Percentage of dead honey bee adults (%) ([1]; applied concentration 3%): 0%
O=C(OCc1ccccc1)c1ccccc1 [benzyl benzoate, Benzyl benzoate, reference compound] | did not cause mortality | airborne toxicity/lethality in the initial screen with a high dose (words) (D. suzukii; VOC at 10 M in paraffin oil, vapour exposure, 1 hour, listed as Benzyl benzoate): not toxic
CC/C=C/CCO [E-3-hexenol] | – | airborne toxicity/lethality in the initial screen with a high dose (words) (D. suzukii; in vivo): showed toxicity
CCCCOC(=O)C1CCCC1 [butyl cyclopentanecarboxylate, Butyl cyclopentanecarboxylate] | showed toxicity | Minimal concentration (%) to induce 100% morbidity/mortality in D. suzukii adults (adult D. suzukii flies): 3%; Percentage of dead honey bee adults (%) ([1]; applied concentration 3%): 0%
CCC=C(C)C=O [2-methyl-2-pentenal] | showed toxicity | –
CCCCCCCCC/C=C/C=O [E-2-dodecenal] | showed toxicity | –
CCCCCCCC/C=C/C=O [E-2-undecenal] | showed toxicity | –
CCCCCCCC=O [octanal, Octanal] | showed toxicity | –
O=Cc1ccccc1 [benzaldehyde, Benzaldehyde] | showed toxicity | –
CCCCCC(C)=O [2-heptanone] | showed toxicity | –
COC(=O)c1ccccc1O [methyl salicylate] | showed toxicity | –

SMILES | airborne toxicity/lethality in the initial screen with a high dose (words) (D. suzukii; [2]) | further results
CCCCCCCCCC/C=C/C=O [E-2-tridecenal] | showed toxicity | time to 100% dead flies (D. suzukii; [3]): an hour
C=CCOC(=O)C1=CCCC1 [allyl 1-cyclopentene-1-carboxylate, Allyl 1-cyclopentene-1-carboxylate] | showed toxicity | concentration at which toxicity is displayed (as low as) (adult D. suzukii flies): 0.3%; Minimal concentration (%) to induce 100% morbidity/mortality in D. suzukii adults (adult D. suzukii flies): 0.5%; Percentage of dead honey bee adults (%) ([1]; applied concentration 1%): 0%
O=C(OCc1ccccc1)c1ccccc1O [benzyl salicylate, Benzyl salicylate, reference compound] | did not cause mortality; also recorded: not toxic | –
COC(=O)C1CCCCC1 [methyl cyclohexanoate] | showed toxicity | –
CCCCCCCCC=O [nonanal, Nonanal] | showed toxicity | Minimal concentration (%) to induce 100% morbidity/mortality in D. suzukii adults (adult D. suzukii flies): 3%; Percentage of dead honey bee adults (%) ([1]; applied concentration 3%): 0%
CC/C=C\CC/C=C/C=O [(E)-2,(Z)-6-nonadienal, trans-2,cis-6-Nonadienal] | showed toxicity | Minimal concentration (%) to induce 100% morbidity/mortality in D. suzukii adults (adult D. suzukii flies): 3%; Percentage of dead honey bee adults (%) ([1]; applied concentration 3%): 10%
CCOC(=O)c1ccccc1 [ethyl benzoate, Ethyl benzoate] | showed toxicity | –
CC(=O)c1ccccc1 [acetophenone, Acetophenone] | showed toxicity | –
CCCCCCO [1-hexanol] | showed toxicity | –
CC(C)OC(=O)C1CCCC1 [isopropyl cyclopentanecarboxylate, Isopropyl cyclopentanecarboxylate] | showed toxicity | –
CCCCCCC=O [heptanal, Heptanal] | showed toxicity | –
C=CC(C)(CCC=C(C)C)OC(=O)c1ccccc1 (centres unmarked) [linalyl benzoate, Linalyl benzoate, reference compound] | did not cause mortality; also recorded: not toxic | –
CCCCCOC(=O)c1ccccc1 [pentyl benzoate, Pentyl benzoate] | showed toxicity | time to 100% dead flies (D. suzukii; [3]): an hour
CC1=C(O)C(=O)OC1C (centres unmarked) [4,5-Dimethyl-3-hydroxy-2,5-dihydrofuran-2-one, reference compound] | showed toxicity | –
CCCCC/C=C/C=O [E-2-octenal] | showed toxicity | concentration at which toxicity is displayed (as low as) (adult D. suzukii flies): 2%
CCCC/C=C/C=C/C=O [(E,E)-2,4-nonadienal] | showed toxicity | concentration at which toxicity is displayed (as low as) (adult D. suzukii flies): 2%; Minimal concentration (%) to induce 100% morbidity/mortality in D. suzukii adults (adult D. suzukii flies): 2%; Percentage of dead honey bee adults (%) ([1]; applied concentration 2%): 0%; Percentage of dead honey bee adults (%) ([1]; applied concentration 5%): 0%
COC(=O)C1CCCC1 [methyl cyclopentanecarboxylate, Methyl cyclopentanecarboxylate] | showed toxicity | –
CC=CC(=O)CC [4-hexen-3-one] | showed toxicity | Minimal concentration (%) to induce 100% morbidity/mortality in D. suzukii adults (adult D. suzukii flies): 3%; Percentage of dead honey bee adults (%) ([1]; applied concentration 3%): 0%
